The values below come from article PMC8286823, “Identifying SARS-CoV-2 antiviral compounds by screening for small molecule inhibitors of nsp15 endoribonuclease” (Biochemical Journal, 2021).

Several values for one entry are separate records, joined by “and”; a condition that tells them apart may be missing. Equal entries are not always repeated. Structures can show the parent of a compound that is named as a salt.

Data set [1] deals with T1, SARS-CoV-2 nsp15 endoribonuclease (Severe acute respiratory syndrome coronavirus 2, UniProt P0DTD1). The format is biochemical. The settings on record: 100 µM compound, 500 nM nsp15, 1 µM 16 nt U substrate; for mean cleavage (%): 20 min at 30°C, n=3.
The target of data set [2] is T1, SARS-CoV-2 nsp15 endoribonuclease.
Data set [3] has the same target. The data set is described as follows: biochemical. The format is biochemical.
In the next data set the target is RNase A (Bos taurus, UniProt P61823). The data set is described as follows: Gel-based nuclease specificity assay with 16 nt U substrate, RNase A. The settings on record: 0, 11, 33 or 100 µM; 1 pg/µl RNase A, 1 µM 16 nt U substrate. The format is biochemical.
Sequence of RNase A (P61823 27-150): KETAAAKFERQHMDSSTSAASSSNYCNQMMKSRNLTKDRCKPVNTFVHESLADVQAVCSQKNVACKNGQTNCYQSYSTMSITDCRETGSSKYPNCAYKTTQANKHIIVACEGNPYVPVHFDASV
Data set [4] has as its target T2, Pierce Universal Nuclease (benzonase) (Serratia marcescens, UniProt P13717).
T2 construct: purchased Pierce
The data set is described as follows: Gel-based nuclease specificity assay with 16 nt U substrate, benzonase. It counts as biochemical. The settings on record: 0, 11, 33 or 100 µM; 25 mU/µl Pierce Universal Nuclease, 1 µM 16 nt U substrate.

Another data set relates to SARS-CoV-2. The data set is described as follows: SARS-CoV-2 infectivity assay in VERO E6 cells (viral area, anti-N staining). It counts as cell-based. How it is done: (§1) We infected VERO E6 cells with SARS-CoV-2 in the presence of a range of concentrations of NSC95397 and quantified viral infected area (Figure 5A,B). NSC95397 sacrificed VERO E6 cells at concentrations above 10 μM, consistent with previous reports that NSC95397 is an inhibitor of the Cdc25 protein phosphatase and multiple protein kinases [[39–42]]. This made it more difficult to assess viral growth. With the aim of finding a concentration of NSC95397 that inhibited viral growth without killing the cells, we performed a second titration at lower NSC95397 concentrations (Figure 5C,D).
(§2) Figure 5. […] (A) SARS-CoV-2 infectivity assays in the presence of NSC95397. DNA in cells was stained with DRAQ5, and virus was immunostained with anti-N antibody. (B) Quantification of normalised viral area (black) and cell area (gray) ±SD. […] (D) Quantification of C as in B. (E) SARS-CoV-2 infectivity assays as in C in the presence of 0.5 µM remdesivir. (F) Quantification of E as in B, note that black control line is quantification of control experiment in C.
(§3) Infectivity assays were performed as in the accompanying manuscript (see Zeng et al.). […] The whole well area was delineated, and area of Alexa488/N protein and DRAQ5/DNA signals were determined for each well. […]

The subject of another data set is VERO E6 cells. The data set is described as follows: Cell survival (cell area, DRAQ5) in SARS-CoV-2 infectivity assay. The format is cell-based, Chlorocebus sabaeus. The settings on record: infected VERO E6 cells, 22 h. How it is done:
as §1, §2, §3

T2 sequence (P13717 22-266): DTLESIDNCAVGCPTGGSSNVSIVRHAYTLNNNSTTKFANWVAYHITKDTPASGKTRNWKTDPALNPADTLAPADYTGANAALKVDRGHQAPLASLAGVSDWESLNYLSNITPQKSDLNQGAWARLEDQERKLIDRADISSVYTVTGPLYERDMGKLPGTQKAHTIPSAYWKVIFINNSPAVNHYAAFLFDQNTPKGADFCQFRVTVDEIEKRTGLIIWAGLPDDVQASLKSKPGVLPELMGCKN

In the case of `CC(C)(C)c1nc2c3cc[nH]c(=O)c3c3cc(F)ccc3c2[nH]1` [JAK Inhibitor I], in data set [1], the “mean cleavage (%)” value is 65%.
Consider `O=Nc1ccc2oc(=O)ccc2c1` [NOBP], for which, in data set [1], the “mean cleavage (%)” value worked out at 63%.
As for `O=C1c2cc([N+](=O)[O-])ccc2-n2c1nc1ccccc1c2=O` [GNF-PF-3777], in data set [1], the “effect on nsp15 endoribonuclease activity in gel-based assay” value (“effect … in gel-based assay” below) was “had no effect even at 100 µM” and the “mean cleavage (%)” value amounted to 60%.
Consider `C=C(C)[C@@H]1CC[C@]2(C(=O)O)CC[C@]3(C)[C@H](CC[C@@H]4[C@@]5(C)CC[C@H](O)C(C)(C)[C@@H]5CC[C@]43C)[C@@H]12` [Betulinic acid], for which, in data set [1], the “mean cleavage (%)” value worked out at 51%.
Regarding `CC#C[C@]1(O)CC[C@H]2[C@@H]3CCC4=CC(=O)CCC4=C3[C@@H](c3ccc(N(C)C)cc3)C[C@@]21C` [Mifepristone], the “mean cleavage (%)” value in data set [1] was 63%. In data set [2], this compound displayed an activity of 85%.
As to `CN1C[C@H](C(=O)N[C@]2(C)O[C@@]3(O)[C@@H]4CCCN4C(=O)[C@H](Cc4ccccc4)N3C2=O)C=C2c3cccc4[nH]cc(c34)C[C@H]21` [Ergotamine], in data set [2], the activity was 99% and 100%.
Regarding `C[C@H]1CC[C@@]2(OC1)O[C@H]1C[C@H]3[C@@H]4CC[C@@H]5C[C@@H](O)CC[C@]5(C)[C@H]4CC[C@]3(C)[C@H]1[C@@H]2C` [Sarsasapogenin], the activity in data set [2] was 100% and 96%.
As for `CO[C@@H]1[C@@H](OC(N)=O)[C@@H](O)[C@H](Oc2ccc3c(O)c(NC(=O)c4ccc(O)c(CC=C(C)C)c4)c(=O)oc3c2C)OC1(C)C` [Novobiocin], the activity in data set [2] was 98% and 95%.
As to `Cc1ncc([N+](=O)[O-])n1CC(O)CCl` (stereo not drawn) [Ornidazole], the “mean cleavage (%)” value in data set [1] amounted to 62%. In addition, the activity in data set [2] was 66%.
For the compound `CN1C[C@H](C(=O)N[C@]2(C)O[C@@]3(O)[C@@H]4CCCN4C(=O)[C@H](Cc4ccccc4)N3C2=O)C[C@@H]2c3cccc4[nH]cc(c34)C[C@H]21` [Dihydroergotamine mesylate], in data set [2], the activity is 95% and 98%.
Turning to `O=c1cc(-c2ccccc2)oc2cc(O)c(O)c(O)c12` [Baicalein], the “mean cleavage (%)” value in data set [1] amounted to 64%. For the same compound, the activity in data set [2] was 80%.
Consider `Cc1c(COc2cc(OCc3cccc(C#N)c3)c(CN3C[C@H](O)C[C@@H]3C(=O)O)cc2Cl)cccc1-c1ccc2c(c1)OCCO2` [BMS-1166], for which, in data set [3], the “inhibition of nsp15 endoribonuclease activity in plate reader” value is on record as “able to inhibit nsp15 endoribonuclease activity”. In data set [1], the “effect … in gel-based assay” value was “did not inhibit the enzyme even at 100 µM” and the “mean cleavage (%)” value is 58%.
`COc1cc(/C=C/C(=O)CC(=O)/C=C/c2ccc(O)c(OC)c2)ccc1O` [Curcumin]: the activity in data set [2] is 95% and 100%.
In the case of `Cn1cnc2nc(NCCO)nc(NCc3ccccc3)c21` [Iso-Olomoucine], the “mean cleavage (%)” value in data set [1] amounted to 60%.
In the case of `Cl.Cl.NCCC(=O)NCCc1cnc[nH]1` [Carcinine dihydrochloride], in data set [1], the “mean cleavage (%)” value was determined as 76%.
As for `Oc1cc2c(cc1O)C(c1ccccc1)CNCC2` (stereo not drawn) [SKF 38393 hydrobromide], the “mean cleavage (%)” value in data set [1] is listed as 62%. This compound returned an activity in data set [2] of 65%.
Turning to `O=C1C(SCCO)=C(SCCO)C(=O)c2ccccc21` [NSC95397], in data set [3], the Hill slope is given as -2.5, half-maximal inhibition (IC50) required 43 µM and the “inhibition of nsp15 endoribonuclease activity in plate reader” value is given as “able to inhibit nsp15 endoribonuclease activity”. Also, in data set [1], the “effect … in gel-based assay” value is “inhibited nsp15 endoribonuclease” and the “mean cleavage (%)” value is reported as 9%. Further, the “effect on nuclease cleavage by RNase A” value on RNase A is “did not affect nuclease cleavage”. Further, in data set [4], the “effect on nuclease cleavage by benzonase” value is given as “did not affect nuclease cleavage”. For the same compound, the “SARS-CoV-2 viral growth in VERO E6 cells” value in the data set on SARS-CoV-2 (MOI 0.5 PFU/cell, 22 h post-infection, titration at lower concentrations) is reported as “viral growth was not inhibited”. For the same compound, the “additive effect with remdesivir on SARS-CoV-2 infectivity” value in the data set on SARS-CoV-2 (VERO E6 cells, NSC95397 titration in the presence of 0.5 µM remdesivir) is listed as “did not observe any additive effect”. Moreover, the “concentration that sacrificed VERO E6 cells” value with VERO E6 cells was “above 10 μM”.
`CC(COc1ccccc1)N(CCCl)Cc1ccccc1` (stereo not drawn) [Phenoxybenzamine]: the “mean cleavage (%)” value in data set [1] was determined as 58%. The compound also displayed an activity in data set [2] of 37%.
As to `CCCNS(=O)(=O)Nc1ncnc(OCCOc2ncc(Br)cn2)c1-c1ccc(Br)cc1` [Macitentan], the “mean cleavage (%)” value in data set [1] was determined as 64%.
